Experimental data reported in PubChem BioAssay (NCI).
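Five concentrations, 48 hours, 96-well plates. GI50 = concentration required for 50% inhibition of growth. The concentration for full growth arrest is given as TGI.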

Experiments:
Test in all cases: growth of human tumour cells (NCI), 48 h
[1] = test system: 786-0 renal
[2] = test system: A498 renal
[3] = test system: A549 NSCLC
[4] = test system: ACHN renal
[5] = test system: BT-549 breast
[6] = test system: CAKI-1 renal
[7] = test system: CCRF-CEM leukemia
[8] = test system: COLO 205 colon
[9] = test system: DU-145 prostate
[10] = test system: EKVX NSCLC
[11] = test system: HCC-2998 colon
[12] = test system: HCT-116 colon
[13] = test system: HCT-15 colon
[14] = test system: HL-60(TB) leukemia
[15] = test system: HOP-62 NSCLC
[16] = test system: HS 578T breast
[17] = test system: HT29 colon
[18] = test system: IGROV1 ovarian
[19] = test system: K-562 leukemia
[20] = test system: KM12 colon
[21] = test system: LOX IMVI melanoma
[22] = test system: M14 melanoma
[23] = test system: MALME-3M melanoma
[24] = test system: MCF7 breast
[25] = test system: MDA-MB-231 breast
[26] = test system: MDA-MB-435
[27] = test system: MOLT-4 leukemia
[28] = test system: NCI-H226 lung
[29] = test system: NCI-H23 lung
[30] = test system: NCI-H460 lung
[31] = test system: NCI-H522 lung
[32] = test system: NCI/ADR-RES ovarian
[33] = test system: OVCAR-3 ovarian
[34] = test system: OVCAR-4 ovarian
[35] = test system: OVCAR-5 ovarian
[36] = test system: OVCAR-8 ovarian
[37] = test system: PC-3 prostate
[38] = test system: RPMI-8226 leukemia
[39] = test system: RXF 393 renal
[40] = test system: SF-268 CNS
[41] = test system: SF-295 CNS
[42] = test system: SF-539 CNS
[43] = test system: SK-MEL-2 melanoma
[44] = test system: SK-MEL-28 melanoma
[45] = test system: SK-MEL-5 melanoma
[46] = test system: SK-OV-3 ovarian
[47] = test system: SN12C renal
[48] = test system: SNB-19 CNS
[49] = test system: SNB-75 CNS
[50] = test system: SR leukemia
[51] = test system: SW-620 colon
[52] = test system: T-47D breast
[53] = test system: TK-10 renal
[54] = test system: U251 CNS
[55] = test system: UACC-257 melanoma
[56] = test system: UACC-62 melanoma
[57] = test system: UO-31 renal

Work on `O=C1c2ccccc2S(=O)(=O)N1CSC(=S)N1CCOCC1` yielded a GI50 [1] greater than 100 µM, a TGI [1] greater than 100 µM and a GI50 [2] greater than 100 µM. For the same compound, the TGI [2] was greater than 100 µM, the GI50 [3] was greater than 100 µM and the TGI [3] was greater than 100 µM. For the same compound, the GI50 [4] was greater than 100 µM, the TGI [4] was greater than 100 µM and the GI50 [5] was greater than 100 µM. The TGI [5] was greater than 100 µM, the GI50 [6] was greater than 100 µM and the TGI [6] was greater than 100 µM. It also gave a GI50 [7] of 7.9 µM, a TGI [7] of 36.1 µM and a GI50 [8] of 62.4 µM. For the same compound, the TGI [8] was greater than 100 µM, the GI50 [9] was greater than 100 µM and the TGI [9] was greater than 100 µM. For the same compound, the GI50 [10] was greater than 100 µM, the TGI [10] was greater than 100 µM and the GI50 [11] was greater than 100 µM. It also gave a TGI [11] greater than 100 µM, a GI50 [12] greater than 100 µM and a TGI [12] greater than 100 µM. For the same compound, the GI50 [13] was greater than 100 µM, the TGI [13] was greater than 100 µM and the GI50 [14] was 4.84 µM. It also gave a TGI [14] of 49.9 µM, a GI50 [15] greater than 100 µM and a TGI [15] greater than 100 µM. It also gave a GI50 [16] greater than 100 µM, a TGI [16] greater than 100 µM and a GI50 [17] of 26.1 µM. The TGI [17] was greater than 100 µM, the GI50 [18] was greater than 100 µM and the TGI [18] was greater than 100 µM. For the same compound, the GI50 [19] was greater than 100 µM, the TGI [19] was greater than 100 µM and the GI50 [20] was greater than 100 µM. For the same compound, the TGI [20] was greater than 100 µM, the GI50 [21] was greater than 100 µM and the TGI [21] was greater than 100 µM. It also gave a GI50 [22] of 31.1 µM, a TGI [22] of 89.6 µM and a GI50 [23] greater than 100 µM. It also gave a TGI [23] greater than 100 µM, a GI50 [24] of 49 µM and a TGI [24] greater than 100 µM. It also gave a GI50 [25] greater than 100 µM, a TGI [25] greater than 100 µM and a GI50 [26] greater than 100 µM. For the same compound, the TGI [26] was greater than 100 µM, the GI50 [27] was 19 µM and the TGI [27] was greater than 100 µM. For the same compound, the GI50 [28] was greater than 100 µM, the TGI [28] was greater than 100 µM and the GI50 [29] was greater than 100 µM. The TGI [29] was greater than 100 µM, the GI50 [30] was 70.1 µM and the TGI [30] was greater than 100 µM. It also gave a GI50 [31] of 24.8 µM, a TGI [31] greater than 100 µM and a GI50 [32] greater than 100 µM. The TGI [32] was greater than 100 µM, the GI50 [33] was greater than 100 µM and the TGI [33] was greater than 100 µM. It also gave a GI50 [34] greater than 100 µM, a TGI [34] greater than 100 µM and a GI50 [35] greater than 100 µM. It also gave a TGI [35] greater than 100 µM, a GI50 [36] greater than 100 µM and a TGI [36] greater than 100 µM. It also gave a GI50 [37] of 38.3 µM, a TGI [37] greater than 100 µM and a GI50 [38] of 15.8 µM. The TGI [38] was 51.3 µM, the GI50 [39] was greater than 100 µM and the TGI [39] was greater than 100 µM. For the same compound, the GI50 [40] was greater than 100 µM, the TGI [40] was greater than 100 µM and the GI50 [41] was greater than 100 µM. It also gave a TGI [41] greater than 100 µM, a GI50 [42] greater than 100 µM and a TGI [42] greater than 100 µM. The GI50 [43] was greater than 100 µM, the TGI [43] was greater than 100 µM and the GI50 [44] was 61.8 µM. The TGI [44] was greater than 100 µM, the GI50 [45] was 58.1 µM and the TGI [45] was greater than 100 µM. It also gave a GI50 [46] greater than 100 µM, a TGI [46] greater than 100 µM and a GI50 [47] greater than 100 µM. For the same compound, the TGI [47] was greater than 100 µM, the GI50 [48] was greater than 100 µM and the TGI [48] was greater than 100 µM. It also gave a GI50 [49] of 65.4 µM, a TGI [49] greater than 100 µM and a GI50 [50] of 17.4 µM. For the same compound, the TGI [50] was 47 µM, the GI50 [51] was 69.1 µM and the TGI [51] was greater than 100 µM. For the same compound, the GI50 [52] was greater than 100 µM, the TGI [52] was greater than 100 µM and the GI50 [53] was greater than 100 µM. It also gave a TGI [53] greater than 100 µM, a GI50 [54] greater than 100 µM and a TGI [54] greater than 100 µM. The GI50 [55] was greater than 100 µM, the TGI [55] was greater than 100 µM and the GI50 [56] was greater than 100 µM. For the same compound, the TGI [56] was greater than 100 µM, the GI50 [57] was greater than 100 µM and the TGI [57] was greater than 100 µM.
In the case of `COc1cc(-c2cc(-c3nc4ccc(F)cc4[nH]3)[nH]n2)cc(OC)c1OC`, the GI50 [1] is reported as 3.97 µM, the TGI [1] is reported as 14.6 µM and the GI50 [2] is reported as 1.86 µM. The TGI [2] was 11.9 µM, the GI50 [3] was 2.46 µM and the TGI [3] was 8.81 µM. For the same compound, the GI50 [4] was 2.54 µM, the TGI [4] was 11.6 µM and the GI50 [5] was 1.84 µM. The TGI [5] was 6.28 µM, the GI50 [6] was 1.8 µM and the TGI [6] was 6.84 µM. It also gave a GI50 [7] of 1.98 µM, a TGI [7] of 5.74 µM and a GI50 [8] of 3.26 µM. For the same compound, the TGI [8] was 10.3 µM, the GI50 [9] was 3.17 µM and the TGI [9] was 13 µM. For the same compound, the GI50 [11] was 5.96 µM, the TGI [11] was 18.7 µM and the GI50 [12] was 2.81 µM. The TGI [12] was 10.4 µM, the GI50 [13] was 2.79 µM and the TGI [13] was 10.8 µM. The GI50 [14] was 2.52 µM, the TGI [14] was 7.71 µM and the GI50 [15] was 2.37 µM. The TGI [15] was 8.05 µM, the GI50 [16] was 3.32 µM and the TGI [16] was greater than 100 µM. For the same compound, the GI50 [17] was 4.4 µM, the TGI [17] was 28.3 µM and the GI50 [18] was 2.27 µM. It also gave a TGI [18] of 10.7 µM, a GI50 [19] of 2.87 µM and a TGI [19] of 32.7 µM. The GI50 [20] was 2.29 µM, the TGI [20] was 6.23 µM and the GI50 [22] was 2.36 µM. For the same compound, the TGI [22] was 7.62 µM, the GI50 [23] was 1.96 µM and the TGI [23] was 8.44 µM. It also gave a GI50 [24] of 2.11 µM, a TGI [24] of 6.37 µM and a GI50 [25] of 3.05 µM. The TGI [25] was 15.2 µM, the GI50 [26] was 2.12 µM and the TGI [26] was 5.44 µM. It also gave a GI50 [27] of 2.1 µM, a TGI [27] of 4.82 µM and a GI50 [28] of 1.28 µM. For the same compound, the TGI [28] was 4.31 µM, the GI50 [29] was 2.35 µM and the TGI [29] was 6.89 µM. It also gave a GI50 [30] of 2.9 µM, a TGI [30] of 11.8 µM and a GI50 [31] of 1.73 µM. For the same compound, the TGI [31] was 5.15 µM, the GI50 [32] was 3.19 µM and the TGI [32] was 9.2 µM. It also gave a GI50 [33] of 2.95 µM, a TGI [33] of 10 µM and a GI50 [34] of 1.29 µM. The TGI [34] was 4.27 µM, the GI50 [35] was 11.1 µM and the TGI [35] was 24 µM. For the same compound, the GI50 [36] was 1.99 µM, the TGI [36] was 5.03 µM and the GI50 [37] was 1.63 µM. It also gave a TGI [37] of 5.84 µM, a GI50 [38] of 1.24 µM and a TGI [38] of 3.26 µM. For the same compound, the GI50 [39] was 1.85 µM, the TGI [39] was 9.36 µM and the GI50 [40] was 3.23 µM. The TGI [40] was 11.2 µM, the GI50 [41] was 2.51 µM and the TGI [41] was 9.67 µM. For the same compound, the GI50 [42] was 3.58 µM, the TGI [42] was 14.4 µM and the GI50 [44] was 2.39 µM. It also gave a TGI [44] of 6.52 µM, a GI50 [45] of 1.39 µM and a TGI [45] of 2.8 µM. The GI50 [46] was 3.32 µM, the TGI [46] was 9.59 µM and the GI50 [47] was 2.92 µM. It also gave a TGI [47] of 12.9 µM, a GI50 [48] of 5.47 µM and a TGI [48] of 18.8 µM. It also gave a GI50 [49] of 1.76 µM, a TGI [49] of 5.54 µM and a GI50 [50] of 3.45 µM. The TGI [50] was 32 µM, the GI50 [51] was 4.11 µM and the TGI [51] was 20.5 µM. The GI50 [52] was 0.764 µM, the TGI [52] was 3.09 µM and the GI50 [53] was 4.39 µM. The TGI [53] was 16 µM, the GI50 [54] was 2.61 µM and the TGI [54] was 12 µM. For the same compound, the GI50 [55] was 2.15 µM, the TGI [55] was 5.9 µM and the GI50 [56] was 1.8 µM. The TGI [56] was 4.82 µM, the GI50 [57] was 1.74 µM and the TGI [57] was 6.97 µM.
